How the values were obtained:
[1] = long-lasting use for diagnostic purposes, i.v. dose up to 80 mg SrCl2; cited from earlier work
[2] = Effect of strontium intake on serum hormone levels in healthy individual(s); format: in vivo, human
Experimental: When healthy individuals were given 7 mg strontium chloride per day, the PRL level increased within two weeks 50-80% from a normal base value. […]
The effect of strontium intake on selected physiological reactions was evaluated by administering strontium alone or together with the full dietary support program described in table 1 to four prostate cancer patients, P1-P4, and to one healthy individual. The results are shown in table 4, which also gives the normal values for the measured hormones.

prostate cancer (CaP) = test: Strontium alone or with full dietary support program in prostate cancer patients: hormone/PSA levels and clinical course; format: in vivo, human
Experimental: In addition to the dietary biomodulating components prescribed (see Table 1), the patient ingested a daily amount of 7 mg of strontium oxide, contained in birch ash that they prepared at home and was taking continuously at a dose of about 8 g per day.
• 1. Oral administration of each (2-5 g/day) of respective L-amino acids: Arg, Asp, Glu, Gly, Lys and Ser in connection with meals. The amino acids are manufactured by Degussa Ag, Germany. • 2. […] Small physiologic amounts of vitamins: A, B, C, D, E, K, folic acid and lycopene. • 4. To improve lymphopoiesis and the immune defense of patients a diet containing prionfree neurogenic lipids (equivalent to approx. 50 g of brain) was recommended, (purchased and canned by Neurofood Ltd. Finland). • 5. All these dietary ingredients can be mixed together in yoghurt, forming a daily ration, using pre-packed pulvers. • 6. Dose-levels are adjusted based on clinical response as measured, and correlated to the patient's body weight.
The effect of strontium intake on selected physiological reactions was evaluated by administering strontium alone or together with the full dietary support program described in table 1 to four prostate cancer patients, P1-P4, and to one healthy individual.

[3] = P0 without Sr for three weeks (after the Sr course)
[4] = healthy individual P0, after Sr 7 mg, 14 days
[5] = healthy individuals, 7 mg strontium chloride per day, two weeks
[6] = healthy persons, ingestion of strontium (in mg's)
[7] = patients diagnosed with prostate cancer, administration of strontium
[8] = laboratory pattern, orchiectomized patient P1 (No. 1), 7 mg strontium oxide daily plus dietary biomodulating components
[9] = patient P1, year 2003, 7 mg strontium oxide daily (birch ash) plus dietary biomodulating components

[Cl-].[Cl-].[Sr+2] [strontium chloride]
harmful side effects [1]: No harmful therapeutic side effects
DHEAS [2, 3]: 2.7 µmol/L
FSH [2, 3]: 11 IU/L
PRL [2, 3]: 337 mU/L
PSA [2, 3]: 0.4 µg/L
serum DHEA [2, 3]: 3.6 nmol/L
DHEAS [2, 4]: 2.3 µmol/L
FSH [2, 4]: 13 IU/L
PRL [2, 4]: 389 mU/L
PSA [2, 4]: 0.4 µg/L
serum DHEA [2, 4]: 9.8 nmol/L
FSH level ([2]; healthy individuals, 7 mg strontium chloride per day): can increase or remain on a level exceeding normal levels
serum DHEA level [2, 5]: can show an increase in value
serum DHEAS level [2, 5]: decreased
serum prolactin (PRL) level increase ([2]; healthy individuals, 7 mg strontium chloride per day, within two weeks, from normal base value): 50-80%
PRL increase [2, 6]: > 50%
decrease in DHEAS [2, 6]: ~40%
DHEAS level (prostate cancer (CaP); [7]): decrease
FSH level (prostate cancer (CaP); [7]): increases
PSA level (prostate cancer (CaP); [7]): decrease
DHEAS (prostate cancer (CaP); prostate cancer patient P2): <0.8 µmol/L
PRL (prostate cancer (CaP); prostate cancer patient P2): 852 mU/L
PSA (prostate cancer (CaP); prostate cancer patient P2): 12.6 µg/L
DHEAS (prostate cancer (CaP); prostate cancer patient P3 ±): 2.5 µmol/L
FSH (prostate cancer (CaP); prostate cancer patient P3 ±): 12 IU/L
PRL (prostate cancer (CaP); prostate cancer patient P3 ±): 568 mU/L
PSA (prostate cancer (CaP); prostate cancer patient P3 ±): 12.7 µg/L
serum DHEA (prostate cancer (CaP); prostate cancer patient P3 ±): 4.3 nmol/L
DHEAS (prostate cancer (CaP); prostate cancer patient P4 ±): <0.8 µmol/L
FSH (prostate cancer (CaP); prostate cancer patient P4 ±): 13 IU/L
PRL (prostate cancer (CaP); prostate cancer patient P4 ±): 1879 mU/L
PSA (prostate cancer (CaP); prostate cancer patient P4 ±): 24.0 µg/L
serum DHEA (prostate cancer (CaP); prostate cancer patient P4 ±): 2.4 nmol/L

[O-2].[Sr+2] [strontium oxide]
Activin (prostate cancer (CaP); [8]): 330 to 500 pg/mL
DHEA (prostate cancer (CaP); [8]): <2.0 nmol/L
DHEAS (prostate cancer (CaP); [8]): <0.8 µmol/L
Inhibin (prostate cancer (CaP); [8]): <7.8 pg/mL
PRL (prostate cancer (CaP); [8]): 15-95 mU/L
PSA (prostate cancer (CaP); [8]): <0.1 µg/L
SHBG (prostate cancer (CaP); [8]): 58 to 61 nmol/L
Testost (prostate cancer (CaP); [8]): 1.0 nmol/L
time until bone-metastases disappeared (prostate cancer (CaP); patient P1, multiple bone-metastases): four
time until bone-pain subsided (prostate cancer (CaP); patient P1, multiple bone-metastases, from beginning of treatment): 6 months
DHEA value (prostate cancer (CaP); [9]): below 2.0
FSH level (prostate cancer (CaP); [9]): about 48 IU/l
prolactin (PRL) value (prostate cancer (CaP); [9]): about 97 mU/l
serum DHEAS level (prostate cancer (CaP); patient P1, year 2003, 7 mg strontium oxide daily (birch ash) plus dietary biomodulating components, below detectable limit): < 0.8
clinical condition (prostate cancer (CaP); patient P1, year 2003, treatment since 1990): excellent clinical condition
